Assay results as given in patent US20030153538A1, “Antitumor agent” (The Nisshin OilliO, Ltd., priority 2000, published 2003).

Columns and labels:
B-16 melanoma cells = assay: Tests for tumor cell-proliferation-inhibitory effect and tumor cell-extinction (cell growth rate from viable cell count); type: cell-based; settings: for Cell Growth Rate / activity at 5 ppm / activity at 15 ppm / activity at 25 ppm / activity at 50 ppm: viable cell count vs control on 6th day; for activity at 5 ppm / activity at 15 ppm / activity at 25 ppm / activity at 50 ppm: Mus musculus, B16, 144 h; for activity at 5 ppm / activity at 15 ppm / activity at 25 ppm: read-out: Cell Growth Rate; for tumor cell-proliferation-inhibitory effect (in words): summary of Table 1
Procedure: The tumor cell-proliferation-inhibitory effect and the tumor cell-killing or extinction effect can be determined according to the following method using B-16 melanoma cells.
More specifically, B-16 melanoma cells are inoculated in each well of a 6-well plate in a desired amount, followed by allowing the plate to stand at 37° C. and 5% carbon dioxide concentration to thus cultivate the cells, adding a sample solution to be tested (maslinic acid, erythrodiol, ursolic acid, uvaol, betulinic acid, betulin and physiologically acceptable salts thereof or derivatives thereof) to each well in an amount sufficient for achieving a desired concentration, on the next day or after 5 days from the initiation of the cultivation, determination of viable cell count on the 6th day after the initiation of the cultivation and calculation of the cell growth rate based on the viable cell count to thus evaluate the tumor cell-proliferation-inhibitory effect and the tumor cell-killing effect.
Tests for determining the tumor cell-proliferation-inhibitory effect and the tumor cell-killing effect were conducted according to the following method. To a 6-well plate, a culture medium was dispensed in an amount of 2 mL/well, B-16 melanoma cells were then inoculated in a desired quantity and thereafter the melanoma cells were cultivated by allowing the plate or the culture medium to stand at 37° C. and a carbon dioxide concentration of 5%. On the following day, a test sample solution prepared was added to and admixed with the content of each well to a desired concentration and the cultivation of the melanoma cells was continued. The culture medium was then exchanged on the 5th day from the initiation of the cultivation and the test sample solution was again added to each well. On the next day, the culture medium was removed to recover the cultivated melanoma cells, followed by washing the cells with PBS (phosphate buffered saline), determination of the viable cell count, and then calculation of the cell growth rate according to the following equation 1. The tumor cell-proliferation-inhibitory effect and the tumor cell-killing effect of each test sample were evaluated on the basis of the cell growth rate thus determined.
Cell Growth Rate (%)=(A/B)×100
As comparative examples, oleanolic acid, β-amyrin, α-amyrin and lupeol were added to the culture medium to thus determine and evaluate the cell growth rate by the same method used above.

B16 melanoma cells = assay: Test for malignant melanoma metastasis-inhibitory effect (lung metastasis after i.v. injection of B16 melanoma cells); type: in vivo, Whister female rats; settings: rats; for RMI (rate of metastasis-inhibition): 100 mg/body wt. (kg), Oral Adm., every other day, lung lesions on 15th day; for tumor cell-metastasis-inhibitory effect compared with the control group (in words): metastasis of cancer to lung, summary of Table 2
Procedure: The tumor cell-metastasis-inhibitory effect can be evaluated according to, for instance, the malignant melanoma metastasis-inhibitory test. More specifically, a suspension of B16 melanoma cells prepared in advance is intravenously injected into Whister female rats, cotton seed oil in which each test substance is dissolved in a predetermined concentration is intraperitoneally administered through injection or orally administered using a sonde, every second day starting from 2nd day after the intravenous injection of the suspension. In this connection, only cotton seed oil is administered to the control group of animals. The lungs are extracted from these animals on the 15th day after the injection of the B16 melanoma cells, the lungs are examined to determine the number of cancer lesions thus metastasized to thus calculate the rate of metastasis-inhibition. The tumor cell-metastasis-inhibitory effect of each test sample is evaluated on the basis of the resulting rate of metastasis-inhibition.
Tests for evaluating the malignant melanoma metastasis-inhibitory effect of each test sample were conducted according to the following method. Whister female rats (6-week-old; average body weight: 160 g) were preliminarily bred with a powdery feed preparation having a composition of AIN-93 for one week, these animals were divided into 5 groups (8 animals per group) so as to equalize the average body weight and then a previously prepared suspension of B16 melanoma cells was intravenously injected into each rat. Subsequently, these animals were bred with a powdery feed preparation having a composition of AIN-93 and cotton seed oil in which each of maslinic acid, erythrodiol, ursolic acid, uvaol, betulinic acid, betulin, compounds of Synthetic Examples 1 and 2, or oleanolic acid had been dissolved in a predetermined concentration was intraperitoneally injected into each animal or orally administered thereto using a sonde, every other day starting from the 2nd day after the injection of the B 16 melanoma cells. In this connection, only cotton seed oil was administered to the control group. On the 15th day after the injection of the B 16 melanoma cells, the lung of each animal was taken out, the lungs were examined to determine the number of cancer lesions thus metastasized and to thus calculate the rate of metastasis-inhibition in accordance with the following equation 2. The tumor cell-metastasis-inhibitory effect of each test sample could be evaluated on the basis of the resulting rate of metastasis-inhibition.
Rate of Metastasis-Inhibition (%)=[(D−C)/D]×100
Wherein C: Average number of cancer lesions metastasized observed in each animal group; and D: average number of cancer lesions metastasized observed in the control group.
Maslinic acid, erythrodiol, ursolic acid, uvaol, betulinic acid, betulin and physiologically acceptable salts thereof or derivatives thereof as well as cotton seed oil as the control were inspected for the rate of metastasis-inhibition (RMI) using the dose and administration methods specified in the following Table 2. In addition, the same procedures used above were repeated except for using oleanolic acid as a comparative sample to thus evaluate the rate of metastasis-inhibition (RMI) thereof.

Compound | Cell Growth Rate (B-16 melanoma cells; 5 ppm) | Cell Growth Rate (B-16 melanoma cells; 10 ppm) | Cell Growth Rate (B-16 melanoma cells; 15 ppm) | Cell Growth Rate (B-16 melanoma cells; 20 ppm) | Cell Growth Rate (B-16 melanoma cells; 25 ppm) | activity at 5 ppm (B-16 melanoma cells; 5 ppm) | activity at 15 ppm (B-16 melanoma cells; 15 ppm) | activity at 25 ppm (B-16 melanoma cells; 25 ppm) | activity at 50 ppm (B-16 melanoma cells) | tumor cell-proliferation-inhibitory effect (in words) (B-16 melanoma cells) | RMI (rate of metastasis-inhibition) (B16 melanoma cells) | tumor cell-metastasis-inhibitory effect compared with the control group (in words) (B16 melanoma cells)
2,3-O-di-stearoyl-maslinic acid ethyl ester [Comp. Of Synthetic Ex. 4] | 100% | 82% | 52% | 13% | 0% | – | – | – | – | – | – | –
2,3-O-di-triethylsilyl-maslinic acid triethylsilyl ester [Comp. Of Synthetic Ex. 3] | 93% | 75% | 54% | 21% | 0% | – | – | – | – | – | – | –
C=C(C)[C@@H]1CC[C@]2(CO)CC[C@]3(C)[C@H](CC[C@@H]4[C@@]5(C)CC[C@H](O)C(C)(C)[C@@H]5CC[C@]43C)[C@@H]12 [Betulin] | – | – | – | – | – | 100% | 78% | 72% | 63% | quite strong tumor cell-proliferation-inhibitory effects | 38.9% | significantly (P<0.05) inhibit any metastasis of cancer to lung
C=C(C)[C@@H]1CC[C@]2(C(=O)O)CC[C@]3(C)[C@H](CC[C@@H]4[C@@]5(C)CC[C@H](O)C(C)(C)[C@@H]5CC[C@]43C)[C@@H]12 [Betulinic acid] | – | – | – | – | – | 88% | 77% | 58% | 38% | quite strong tumor cell-proliferation-inhibitory effects | 51.2% | significantly (P<0.05) inhibit any metastasis of cancer to lung
CCOC(=O)[C@]12CCC(C)(C)C[C@H]1C1=CC[C@@H]3[C@@]4(C)C[C@@H](O)[C@H](O)C(C)(C)[C@@H]4CC[C@@]3(C)[C@]1(C)CC2 [Comp. Of Synthetic Ex. 1, maslinic acid ethyl ester] | 73% | 49% | 18% | 0% | 0% | – | – | – | – | – | 77.6% | –
CC(=O)O[C@@H]1C[C@]2(C)[C@H]3CC=C4[C@@H]5CC(C)(C)CC[C@]5(C(=O)O)CC[C@@]4(C)[C@]3(C)CC[C@H]2C(C)(C)[C@H]1OC(C)=O [Comp. Of Synthetic Ex. 2, 2,3-O-di-acetyl-maslinic acid] | 89% | 63% | 34% | 4% | 0% | – | – | – | – | – | 74.8% | –
CC(=O)OCC12CCC(C)(C)CC1C1=CCC3C4(C)CCC(OC(C)=O)C(C)(C)C4CCC3(C)C1(C)CC2 (centres unmarked) [Comp. Of Synthetic Ex. 5, 3,28-O-di-acetyl-erythrodiol] | 68% | 50% | 23% | 0% | 0% | – | – | – | – | – | – | –
